Columns and labels:
[1] = test system: orally 32P phosphate loaded rats; assay: Blood radioactivity increase inhibiting action in orally 32P phosphate loaded rats (phosphate absorption inhibitory action); type: in vivo; conditions: Rattus norvegicus, 0.5 h; 3 mg/kg oral, male Wistar rats; from serum radioactivity AUC0-30min vs control group; read-out: Phosphate absorption inhibitory rate (%)
Procedure: Blood Radioactivity Increase Inhibiting Action in Orally ^32P Phosphate Loaded Rats (Phosphate Absorption Inhibitory Action)
Male Wistar rats (6 to 7 weeks old) were fasted for 24 hours and used as experimental animals. The compound was dissolved or suspended with a solvent, and was used at a concentration of 0.6 mg/mL. The compound-administered animals were forcibly orally administered with the compound at a dose of 3 mg/kg. Control-group animals were administered a solvent containing no compound at a dose of 5 mL/kg. After 5 minutes from administration of the compound or from administration of the solvent, a ^32P-containing phosphate solution (8.3 mM NaH2PO4) was orally administered thereto at a dose of 7.2 mL/kg. After 15 minutes and 30 minutes, the blood was taken from the orbital venous plexus and the serum was collected. Radioactivity in 0.1 mL of the serum was measured by a liquid scintillation counter. AUC0-30min calculated from the measured counts was considered as a phosphate absorption amount. The phosphate absorption inhibitory rate was determined from the AUC0-30min value according to the following equation.
Phosphate absorption inhibitory rate (%)=(1−Phosphate absorption count of compound-administered group/Phosphate absorption count of control group)×100
As a result, it was confirmed that several compounds of the formula (I) have an intestinal phosphate absorption inhibitory action. With the several compounds of the formula (I), the phosphate absorption inhibitory rates at a pharmacological evaluation dose of 3 mg/kg are shown in Table 2.

[2] = target: T1, rat NPT-IIb (Rattus norvegicus, UniProt Q9JJ09); assay: 33P phosphate uptake inhibiting action of rat NPT-IIb expressing cell; type: cell-based; conditions: HEK293; evaluation concentration 1 μM; 33P uptake in rat NPT-IIb stably expressing 293 cells; read-out: Rat NPT-IIb inhibitory rate (%)
T1 construct: rat NPT-IIb ORF was cloned into p3×FLAG-CMV-10; 3xFLAG (N); expressed in transfected cells
T1 sequence (Q9JJ09 1-695): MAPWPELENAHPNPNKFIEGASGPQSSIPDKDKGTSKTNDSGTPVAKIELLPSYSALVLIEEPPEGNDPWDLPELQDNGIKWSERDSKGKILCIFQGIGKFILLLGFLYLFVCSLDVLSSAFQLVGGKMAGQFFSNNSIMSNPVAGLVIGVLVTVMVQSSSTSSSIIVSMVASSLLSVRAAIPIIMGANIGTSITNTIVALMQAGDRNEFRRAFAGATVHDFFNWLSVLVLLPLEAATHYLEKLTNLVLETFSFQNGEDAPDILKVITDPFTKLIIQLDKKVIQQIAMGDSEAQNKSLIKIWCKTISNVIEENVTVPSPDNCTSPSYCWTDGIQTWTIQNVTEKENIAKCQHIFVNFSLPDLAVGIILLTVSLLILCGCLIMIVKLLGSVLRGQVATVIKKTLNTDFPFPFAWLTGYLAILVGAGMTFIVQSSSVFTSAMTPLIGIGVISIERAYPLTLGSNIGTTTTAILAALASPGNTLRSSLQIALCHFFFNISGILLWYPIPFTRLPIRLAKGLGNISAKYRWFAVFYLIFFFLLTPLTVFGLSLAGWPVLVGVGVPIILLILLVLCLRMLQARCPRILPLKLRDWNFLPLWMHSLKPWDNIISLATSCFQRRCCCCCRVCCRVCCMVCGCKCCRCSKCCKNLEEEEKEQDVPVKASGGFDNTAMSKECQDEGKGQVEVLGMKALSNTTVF
Text: Test Example 1: ^33P Phosphate Uptake Inhibiting Action of Rat NPT-IIb Expressing Cell
Preparation of Rat NPT-IIb Expressing Cell
Using rat small intestine cDNA library as a template, rat NPT-IIb ORF was cloned into p3×FLAG-CMV-10 by PCR according to a standard method. Then, the cloned rat NPT-IIb expressing plasmid was transfected into 293 cells, and G418 was used to obtain a rat NPT-11b-stably expressing cell line.
Evaluation System on Inhibition of Phosphate Uptake into Rat NPT-IIb Expressing Cell
The rat NPT-Hb expressing cells were seeded into a 96-well plate and incubated overnight. The medium was taken out and washed with buffer A (137 mM N-methyl-D-glucamine, 5.4 mM KCl, 2.8 mM CaCl2, 1.2 mM MgCl2, 10 mM HEPES (adjusted to pH 7.4 with HCl)), and then buffer B (137 mM NaCl, 5.4 mM KCl, 2.8 mM CaCl2, 1.2 mM MgCl2, 0.1 mM KH2PO4, 10 mM HEPES (adjusted to pH 7.4 with KOH)) was added thereto. Then, a compound having 10-fold higher concentration relative to the evaluation concentration was prepared by dilution with the buffer B and added thereto, followed by incubation in CO2 incubator. Buffer B supplemented 50 μCi/mL ^33P was added thereto, followed by further incubation in a CO2 incubator. After the reaction, the buffer was taken out and the cells were washed with buffer C (137 mM NaCl, 10 mM Tris/HCl pH 7.2). Then, Microscint-20 was added thereto and ^33P uptake was measured by using TopCount. The inhibitory rate was determined according to the following equation.
Inhibitory rate (%)=(1−(^33P uptake of drug-treated well)/(^33P uptake of DMSO-added well))×100
For several compounds of the formula (I), rat NPT-11b inhibitory activity at a pharmacological evaluation concentration of 1 μM is shown in Table 1. Here, Ex represents Example No. as denoted below (this shall apply hereinafter).

## CCN([C@H]1CC[C@H](C(=O)O)CC1)S(=O)(=O)c1cccc(C(=O)Nc2sc3c(c2C(=O)Nc2ccc(CCc4ccc(C(=O)O)cc4)cc2)CCCC3)c1 [Example 2, 4-{2-[4-({[2-({3-[(trans-4-carboxycyclohexyl)(ethyl)sulfamoyl]benzoyl}amino)-4,5,6,7-tetrahydro-1-benzothiophen-3-yl]carbonyl}amino)phenyl]ethyl}benzoic acid]
[1]
  inhibition in vivo at 3 mg/kg: ≥ 60%
[2]
  inhibition at 1 µM: 83%
other
  melting point: 262.8 °C

## CCN(C1(C(=O)O)CC1)S(=O)(=O)c1cccc(C(=O)Nc2sc3c(c2C(=O)Nc2ccc(CCc4ccc(C(=O)O)cc4)cc2)CCCC3)c1 [Example 14, 4-{2-[4-({[2-({3-[(1-carboxycyclopropyl)(ethyl)sulfamoyl]benzoyl}amino)-4,5,6,7-tetrahydro-1-benzothiophen-3-yl]carbonyl}amino)phenyl]ethyl}benzoic acid]
[1]
  inhibition in vivo at 3 mg/kg: 47%
[2]
  inhibition at 1 µM: 71%
other
  melting point: 254.7 °C
